Results as given in patent US20250270445A1, “COMPOUNDS AND USES THEREOF IN FIELD OF OPTOELECTRONICS” (Zhejiang Brilliant Optoelectronic Technology Co.,Ltd., priority 2022, published 2025).

Assays:
Format in all cases: physicochemical
[1] = Solubility of compounds in toluene
Method: The solubility of the compounds in the toluene were determined as follows: • 1. 1000 mg of toluene solution was placed in the transparent glass sample bottle. • 2. A certain mass of the compound was added into the toluene, and oscillated until completely dissolved. • 3. After the compound was completely dissolved, a certain mass of the compound was further added into the toluene, and oscillated. • 4. The above steps were repeated until the compound wasn't dissolved any more. • 5. The total mass of the compound added was recorded and the solubility was obtained by calculation.

[2] = Absorption spectrum, emission spectrum and extinction coefficient in toluene solution; settings: for Molar extinction coefficient of the toluene solution: maximum absorption peak
Method: The extinction coefficients of the compounds and their absorption and emission spectrums in the solution were determined as follows: • 1. The compound with a certain amount of substance concentration in the toluene was prepared in a volumetric flask. • 2. The absorption spectrum of the solution was measured by using an ultraviolet-visible spectrophotometer (Puxi T9s) to obtain the absorption peak wavelength. • 3. The absorbance of the maximum absorption peak divided by the amount of substance concentration is the molar extinction coefficient of the compound. • 4. The emission spectrum of the solution was measured by using a fluorescent spectroscope (Hitachi, F-4700 FL Spectrophotometer) to obtain the emission peak wavelength.

[3] = Absorption and emission spectrum in spin-coated film; settings: for Absorption peak of the film / Emission peak of the film: spin-coated film
Method: The absorption and emission spectrums of the compounds in the film were determined as follows: • 1. The compound with a certain concentration in the toluene was prepared. • 2. The prepared toluene solution was dropped onto a clean glass substrate. • 3. Spin-coating, and then heating at the 80° C. for 1 min. • 4. The absorption spectrum of the film was measured by using an ultraviolet-visible spectrophotometer (Puxi T9s) to obtain the absorption peak wavelength. • 5. The emission spectrum of the film was measured by using a fluorescent spectroscope (Hitachi, F-4700 FL Spectrophotometer) to obtain the emission peak wavelength.

[4] = UV stability of compounds in toluene (absorbance decay to 80%); settings: 1×10^−5 mol/L in toluene, UV LEDs 365 nm & 255 nm, time to 80% absorbance, normalized to comparative compound 2 as 100%
Method: The compound was dissolved in the toluene with a concentration of 1×10^−5 mol/L. 3 mL solution was added to the cuvette with a lid and the lid was screwed on tightly, then the cuvette was placed in the ultraviolet-visible spectrophotometer to test the absorption spectrum, the absorbance of the maximum absorption peak was recorded as the initial value. The cuvette was placed at a distance of 12 cm from the UV LEDs (365 nm & 255 nm), irradiated for a period and tested its absorption spectrum, then continued to be irradiated after the test, and repeated until the absorbance decayed to 80% of its initial value, the time was recorded as t80.

| Structure (SMILES) | Solubilities(/100 g, toluene) [1] [g/100 g toluene] | Absorption peak of the toluene solution [2] [nm] | Emission peak of the toluene solution [2] [nm] | Molar extinction coefficient of the toluene solution [2] | red shift of film spectrum versus solution spectrum ([3]; film versus toluene solution) | Absorption peak of the film [3] [nm] | Emission peak of the film [3] [nm] | Times t80 [4] [%] |
| --- | --- | --- | --- | --- | --- | --- | --- | --- |
| CC(C)(C)c1ccc2c(c1)c1cc(C(C)(C)C)cc3c1n2-c1cccc2c1B3c1cc3c4ccccc4c4ccccc4c3c3c4c5c6ccccc6c6ccccc6c5ccc4n-2c13 [E2] | >0.7 | 507 | 523 | 4.8 × 10^4 L · mo 1^−1 | – | – | – | – |
| CC(C)(C)c1ccc2c(c1)c1cc(C(C)(C)C)cc3c1n2-c1cc(-c2c(-c4ccccc4)cc(-c4ccccc4)cc2-c2ccccc2)cc2c1B3c1cc3c4ccccc4c4ccccc4c3c3c4c5c6ccccc6c6ccccc6c5ccc4n-2c13 [E3] | >0.7 | 512 | 530 | 6.6 × 10^4 L · mo 1^−1 | – | – | – | – |
| CCCCCCC1(CCCCCC)c2ccccc2-c2ccc(-c3ccccc3-c3ccc4c5cccc6c(-c7ccccc7-c7ccc8c(c7)C(CCCCCC)(CCCCCC)c7ccccc7-8)ccc(c7cccc3c74)c65)cc21 [comparative compound 1, reference compound] | – | 461 | 485 | 4.3 × 10^4 L · mo 1^−1 | large red shift | 464 | 543 | – |
| c1ccc(N(c2ccc(-c3ccc(N(c4ccccc4)c4ccc5c(c4)c4ccccc4n5-c4ccccc4)cc3)cc2)c2ccc3c(c2)c2ccccc2n3-c2ccccc2)cc1 [comparative compound 2, reference compound] | – | – | – | – | – | – | – | 100 |
| Cc1cccc(C)c1N(c1ccccc1)c1cc(N(c2ccccc2)c2c(C)cccc2C)c2ccc3c(N(c4ccccc4)c4c(C)cccc4C)cc(N(c4ccccc4)c4c(C)cccc4C)c4ccc1c2c43 [compound 1] | 1.5 | 475 | 490 | 6.0 × 10^4 L · mo 1^−1 | – | 477 | 497 | 190 |
| Cc1cccc(C)c1N(c1ccc(C(C)(C)C)cc1)c1cc(N(c2ccc(C(C)(C)C)cc2)c2c(C)cccc2C)c2ccc3c(N(c4ccc(C(C)(C)C)cc4)c4c(C)cccc4C)cc(N(c4ccc(C(C)(C)C)cc4)c4c(C)cccc4C)c4ccc1c2c43 [compound 3] | 4.2 | 477 | 495 | 3.0 × 10^4 L · mo 1^−1 | – | 479 | 497 | 212 |
| Cc1cccc(C)c1N(c1cc(C(C)(C)C)cc(C(C)(C)C)c1)c1cc(N(c2cc(C(C)(C)C)cc(C(C)(C)C)c2)c2c(C)cccc2C)c2ccc3c(N(c4cc(C(C)(C)C)cc(C(C)(C)C)c4)c4c(C)cccc4C)cc(N(c4cc(C(C)(C)C)cc(C(C)(C)C)c4)c4c(C)cccc4C)c4ccc1c2c43 [compound 5] | 4.6 | 477 | 497 | 5.6 × 10^4 L · mo 1^−1 | – | 476 | 497 | 304 |
| CC(C)c1cccc(C(C)C)c1N(c1ccc(C(C)(C)C)cc1)c1cc(N(c2ccc(C(C)(C)C)cc2)c2c(C(C)C)cccc2C(C)C)c2ccc3c(N(c4ccc(C(C)(C)C)cc4)c4c(C(C)C)cccc4C(C)C)cc(N(c4ccc(C(C)(C)C)cc4)c4c(C(C)C)cccc4C(C)C)c4ccc1c2c43 [compound 6] | >20 | – | – | – | – | – | – | – |
| CC(C)c1cccc(C(C)C)c1N(c1cc(C(C)(C)C)cc(C(C)(C)C)c1)c1cc(N(c2cc(C(C)(C)C)cc(C(C)(C)C)c2)c2c(C(C)C)cccc2C(C)C)c2ccc3c(N(c4cc(C(C)(C)C)cc(C(C)(C)C)c4)c4c(C(C)C)cccc4C(C)C)cc(N(c4cc(C(C)(C)C)cc(C(C)(C)C)c4)c4c(C(C)C)cccc4C(C)C)c4ccc1c2c43 [compound 7] | >20 | – | – | – | – | – | – | – |
| CCc1cccc(CC)c1N(c1ccc(C(C)(C)C)cc1)c1cc(N(c2ccc(C(C)(C)C)cc2)c2c(CC)cccc2CC)c2ccc3c(N(c4ccc(C(C)(C)C)cc4)c4c(CC)cccc4CC)cc(N(c4ccc(C(C)(C)C)cc4)c4c(CC)cccc4CC)c4ccc1c2c43 [compound 9] | 25.9 | 482 | 500 | 5.3 × 10^4 L · mo 1^−1 | – | 482 | 499 | 279 |
| Cc1cc2ccccc2cc1N(c1ccc(C(C)(C)C)cc1)c1cc(N(c2ccc(C(C)(C)C)cc2)c2cc3ccccc3cc2C)c2ccc3c(N(c4ccc(C(C)(C)C)cc4)c4cc5ccccc5cc4C)cc(N(c4ccc(C(C)(C)C)cc4)c4cc5ccccc5cc4C)c4ccc1c2c43 [compound 10] | >2.5 | – | – | – | – | – | – | – |
| Cc1cc2ccccc2c(C)c1N(c1ccc(C(C)(C)C)cc1)c1cc(N(c2ccc(C(C)(C)C)cc2)c2c(C)cc3ccccc3c2C)c2ccc3c(N(c4ccc(C(C)(C)C)cc4)c4c(C)cc5ccccc5c4C)cc(N(c4ccc(C(C)(C)C)cc4)c4c(C)cc5ccccc5c4C)c4ccc1c2c43 [compound 11] | >2 | – | – | – | – | – | – | – |
| Cc1cccc(C)c1N(c1ccc(C(F)(F)F)cc1)c1cc(N(c2ccc(C(F)(F)F)cc2)c2c(C)cccc2C)c2ccc3c(N(c4ccc(C(F)(F)F)cc4)c4c(C)cccc4C)cc(N(c4ccc(C(F)(F)F)cc4)c4c(C)cccc4C)c4ccc1c2c43 [compound 12] | >4 | – | – | – | – | – | – | – |
| CC(C)c1ccc(-c2cc(-c3cc(C(C)(C)C)cc(C(C)(C)C)c3)ccc2N(c2cc(F)c(F)c(F)c2)c2cc(N(c3cc(F)c(F)c(F)c3)c3ccc(-c4cc(C(C)(C)C)cc(C(C)(C)C)c4)cc3-c3ccc(C(C)C)cc3)c3ccc4c(N(c5cc(F)c(F)c(F)c5)c5ccc(-c6cc(C(C)(C)C)cc(C(C)(C)C)c6)cc5-c5ccc(C(C)C)cc5)cc(N(c5cc(F)c(F)c(F)c5)c5ccc(-c6cc(C(C)(C)C)cc(C(C)(C)C)c6)cc5-c5ccc(C(C)C)cc5)c5ccc2c3c54)cc1 [compound 14] | >5 | 475 | 494 | 5.1 × 10^4 L · mo 1^−1 | – | 471 | 493 | – |
| CCCCCCCCc1ccc(-c2c(N(c3cc(F)c(F)c(F)c3)c3cc(N(c4cc(F)c(F)c(F)c4)c4ccc5ccccc5c4-c4ccc(CCCCCCCC)cc4)c4ccc5c(N(c6cc(F)c(F)c(F)c6)c6ccc7ccccc7c6-c6ccc(CCCCCCCC)cc6)cc(N(c6cc(F)c(F)c(F)c6)c6ccc7ccccc7c6-c6ccc(CCCCCCCC)cc6)c6ccc3c4c65)ccc3ccccc23)cc1 [compound 17] | >4 | 475 | 494 | 5.8 × 10^4 L · mo 1^−1 | – | 476 | 497 | – |
| CCCCCCCCc1ccc(-c2cc(N(c3ccc(C(C)(C)C)cc3)c3ccc(C(C)(C)C)cc3)ccc2N(c2cc(F)c(F)c(F)c2)c2cc(N(c3cc(F)c(F)c(F)c3)c3ccc(N(c4ccc(C(C)(C)C)cc4)c4ccc(C(C)(C)C)cc4)cc3-c3ccc(CCCCCCCC)cc3)c3ccc4c(N(c5cc(F)c(F)c(F)c5)c5ccc(N(c6ccc(C(C)(C)C)cc6)c6ccc(C(C)(C)C)cc6)cc5-c5ccc(CCCCCCCC)cc5)cc(N(c5cc(F)c(F)c(F)c5)c5ccc(N(c6ccc(C(C)(C)C)cc6)c6ccc(C(C)(C)C)cc6)cc5-c5ccc(CCCCCCCC)cc5)c5ccc2c3c54)cc1 [compound 18] | >10 | 492 | 520 | 5.1 × 10^4 L · mo 1^−1 | – | 487 | 518 | – |
| CC(C)c1ccc(N(c2cc(F)c(F)c(F)c2)c2cc(N(c3cc(F)c(F)c(F)c3)c3ccc(C(C)C)cc3/C=C/c3ccc(C(C)(C)C)cc3)c3ccc4c(N(c5cc(F)c(F)c(F)c5)c5ccc(C(C)C)cc5/C=C/c5ccc(C(C)(C)C)cc5)cc(N(c5cc(F)c(F)c(F)c5)c5ccc(C(C)C)cc5/C=C/c5ccc(C(C)(C)C)cc5)c5ccc2c3c54)c(/C=C/c2ccc(C(C)(C)C)cc2)c1 [compound 19] | >5 | – | – | – | – | – | – | – |
